Publication PMC9663578, “A fluorogenic probe for predicting treatment response in non-small cell lung cancer with EGFR-activating mutations” (Nature Communications, 2022)
Several values for one entry are separate records, joined by “and”; a condition that tells them apart may be missing. Equal values may be shown once.

Assays:
A549 cells = assay: FACS assay in cultured cells; conditions: for HX103 dose-dependent signal (Supplementary Fig. 18): 20 µM = 100
Procedure: (§1) Briefly, the cultured cells were seeded on the petri dish and counted using Count star BioMed automated cell counter. Around 10^6 live-cells were collected and were pelleted (2000×g, 3 min), followed by washing with PBS (2x). Cells were then resuspended in PBS buffer containing 0.1% BSA (1 × 10^6 cells/mL). […] The cell suspension was resuspended in PBS and analyzed with a FACSVerse^TM flow cytometer (BD Biosciences, LSRFortessa). About 10,000 events per tube were analyzed and the mean fluorescence intensity was detected and analyzed.
(§2) For the FACS assay with EGFR antibody, around 10^6 live-cells were collected and washed with PBS (2x). The cells were fixed by 400 µL 4% paraformaldehyde for 15 min at room temperature, followed by permeabilization with 0.1% Triton X-100 for 10 min and blocking with 5% BSA for 30 min. […] The cells were then washed with 0.5% BSA/PBS (3x) and resuspended in 400 µL of 0.1% BSA/PBS. […] The resuspended cell suspension was then analyzed on a FACSVerseTM flow cytometer (BD Biosciences, LSRFortessa). Nonspecific fluorescence binding was omitted by Rabbit mAb IgG isotype control (#3900, CST, 1:100) and the corresponding mean fluorescence was subtracted from the signal measured with each primary antibody. About 10,000 events per tube were analyzed and the mean fluorescence intensity was detected and analyzed.
(§3) Subsequently, the treated cells were incubated for 30 min at 37 °C, followed by washing with PBS buffer three times. […] Finally, the co-stained cells were washed with 0.5% BSA/PBS for three times and resuspended in 400 µL of 0.1% BSA/PBS. The obtained cell suspension was ready for analysis. Nonspecific fluorescence binding was omitted by Rabbit mAb IgG isotype control (#3900, CST, 1:100) as described above.
(§4) Nonspecific fluorescence binding was omitted by Rabbit mAb IgG isotype control (#3900, CST, 1:100). […] After incubation for another 30 min at room temperature, the co-stained cells were washed with 0.5% BSA/PBS for three times and resuspended in 400 µL of 0.1% BSA/PBS. The obtained cell suspension was ready for analysis. Nonspecific fluorescence binding was omitted by Rabbit mAb IgG isotype control (#3900, CST, 1:100) as described above.
(§5) The cells were seeded on the petri dish and cultured at the normal condition with 10% FBS, and that was changed to serum-free condition for 24 h when the cells proliferated at ~80% confluence. […] Nonspecific fluorescence binding was omitted by Rabbit mAb IgG isotype control (#3900, CST, 1:100) as described above.

MTT cytotoxicity assay = format: cell-based; conditions: human, HeLa cells, EGFR wild-type, n=3
A431 cells = assay: FACS assay in cultured cells; conditions: for HX103 dose-dependent signal (Supplementary Fig. 18): 20 µM = 100
Procedure: as §1, §2, §3, §4, §5

EGFR 19del = target: T1, EGFR 19del (Homo sapiens, UniProt P00533, DEL746-750); assay: Kinase inhibition assay (fluorescent mobility-shift assay); format: biochemical; parameters: Kinase activity: unit not given here; conditions: for Kinase activity: 19del, n=1-3
T1 construct: purchased Thermo Fisher PV6179
T1 sequence (P00533 with tags, fused parts or gaps DEL746-750): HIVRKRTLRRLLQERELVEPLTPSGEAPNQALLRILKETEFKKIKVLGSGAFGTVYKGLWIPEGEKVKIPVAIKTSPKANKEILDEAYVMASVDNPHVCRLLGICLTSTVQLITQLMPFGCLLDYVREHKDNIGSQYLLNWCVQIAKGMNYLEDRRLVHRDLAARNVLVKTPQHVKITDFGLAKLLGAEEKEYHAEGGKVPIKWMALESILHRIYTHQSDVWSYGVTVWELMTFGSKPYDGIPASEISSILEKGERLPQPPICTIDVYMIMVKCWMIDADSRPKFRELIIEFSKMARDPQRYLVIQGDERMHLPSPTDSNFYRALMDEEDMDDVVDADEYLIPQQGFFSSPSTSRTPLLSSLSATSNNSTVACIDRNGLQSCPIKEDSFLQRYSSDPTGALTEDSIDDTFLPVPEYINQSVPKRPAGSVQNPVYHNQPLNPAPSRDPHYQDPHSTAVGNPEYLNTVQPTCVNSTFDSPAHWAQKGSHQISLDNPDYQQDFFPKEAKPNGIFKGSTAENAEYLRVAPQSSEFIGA

Jurkat cells = assay: FACS assay in cultured cells
Procedure: The FACS assay was performed according to the reported literatures[67],[68]. Briefly, the cultured cells were seeded on the petri dish and counted using Count star BioMed automated cell counter. Around 10^6 live-cells were collected and were pelleted (2000×g, 3 min), followed by washing with PBS (2x). Cells were then resuspended in PBS buffer containing 0.1% BSA (1 × 10^6 cells/mL). […] The cell suspension was resuspended in PBS and analyzed with a FACSVerse^TM flow cytometer (BD Biosciences, LSRFortessa). About 10,000 events per tube were analyzed and the mean fluorescence intensity was detected and analyzed.
as §2, §3, §4, §5

H1975 cells = assay: MTT cytotoxicity assay; format: cell-based; conditions: Homo sapiens, NCI-H1975; EGFR L858R/T790M, 48 h, n=3
[1] = HX103 5 µM, 30 min, replicates n=1-3

In the case of `COc1cc2c(Nc3ccc(F)c(Cl)c3)ncnc2cc1OCCCNc1ccc(S(=O)(=O)N(C)C)c2nonc12` [HX103], the “EGFR(+) HX103 (+) (%) AVE” value (A549 cells; A549, AVE of n=3) is reported as 13.21%, the “HX103 (+) (%) AVE” value (A549 cells; A549, AVE of n=3) is reported as 14.4253% and the “HX103 dose-dependent signal (Supplementary Fig. 18)” value (“HX103 dose-dependent signal” for short) (A549 cells; A549, HX103 0.04 µM) is reported as 1.227 and 1.64 and 1.474. For the same molecule, the “HX103 dose-dependent signal” value (A549 cells; A549, HX103 0.37 µM) was 16.7962 and 13.0237 and 14.9399, the “HX103 dose-dependent signal” value (A549 cells; A549, HX103 1.1 µM) was 32.8472 and 24.022 and 28.4446 and the “HX103 dose-dependent signal” value (A549 cells; A549, HX103 3.3 µM) was 43.6352 and 41.2034 and 42.4293. The “HX103 dose-dependent signal” value (A549 cells; A549, HX103 10 µM) was 71.5104 and 62.9379 and 67.2341, the “HX103 dose-dependent signal” value (A549 cells; A549, HX103 15 µM) was 96.2656 and 89.3616 and 85.8336 and the “HX103 dose-dependent signal” value (A549 cells; A549, HX103 20 µM) was 100. For the same molecule, the “HX103 signal (Supplementary Fig. 7)” value (A549 cells; A549, HX103 alone or with Gefitinib, replicates n=1-3) was 102.046 and 98.7743 and 99.18, the “EGFR(+) HX103 (+) (%)” value (A549 cells; A549, replicates n=1-3) was 7.43% and 15.21% and 16.99% and the “HX103(+) (%)” value (A549 cells; A549, replicates n=1-3) was 14.626% and 17.32% and 11.33%. The “normalized MFI of HX103 labeling” value (A549 cells; [1]) was 51.9313% and 58.1545% and 55.0429%, the “EGFR(+) HX103 (+) (%)” value (A549 cells; HX103 5 µM, replicates n=1-3) was 15.21% and 16.99% and 7.43% and the IC50 at 48 h (MTT cytotoxicity assay) was greater than 100 µM. For the same molecule, the “EGFR(+) HX103 (+) (%) AVE” value (A431 cells; A431, AVE of n=3) was 62.105%, the “HX103 (+) (%) AVE” value (A431 cells; A431, AVE of n=3) was 75.74% and the “HX103 dose-dependent signal” value (A431 cells; A431, HX103 0.37 µM) was 15.6053 and 17.5852 and 16.5942. The “HX103 dose-dependent signal” value (A431 cells; A431, HX103 1.1 µM) was 27.0427 and 32.7871 and 29.9049, the “HX103 dose-dependent signal” value (A431 cells; A431, HX103 3.3 µM) was 44.6928 and 49.6432 and 47.158 and the “HX103 dose-dependent signal” value (A431 cells; A431, HX103 10 µM) was 77.4475 and 86.2684 and 81.868. For the same molecule, the “HX103 dose-dependent signal” value (A431 cells; A431, HX103 15 µM) was 96.5825 and 89.3875 and 92.975, the “HX103 dose-dependent signal” value (A431 cells; A431, HX103 20 µM) was 100 and the “HX103 signal (Supplementary Fig. 7)” value (A431 cells; A431, HX103 alone or with Gefitinib, replicates n=1-3) was 114.212 and 76.0875 and 109.7. For the same molecule, the “EGFR(+) HX103 (+) (%)” value (A431 cells; A431, replicates n=1-3) was 55.07% and 64.605% and 66.64%, the “HX103(+) (%)” value (A431 cells; A431, replicates n=1-3) was 96.31% and 66.39% and 64.52% and the “normalized MFI of HX103 labeling” value (A431 cells; [1]) was 83.2618% and 101.288% and 92.2747%. The “EGFR(+) HX103 (+) (%)” value (A431 cells; HX103 5 µM, replicates n=1-3) was ~ 60% and 64.605% and 66.64% and 55.07%, the Kinase activity (EGFR 19del; Log [HX103 (M)] -7.5) was 4.826 and 8.074 and 4.95 and the Kinase activity (EGFR 19del; Log [HX103 (M)] -8) was 14.14 and 14.3 and 14.2. The Kinase activity (EGFR 19del; Log [HX103 (M)] -8.5) was 33.15 and 25.38 and 27.26, the Kinase activity (EGFR 19del; Log [HX103 (M)] -9) was 51.95 and 59.57 and 58.76 and the IC50 (EGFR 19del; n = 3) was 0.0013 µM. The “normalized MFI of HX103 labeling” value (Jurkat cells; [1]) was 17.5966% and 26.6094% and 22.103%, the “EGFR(+) HX103 (+) (%)” value (Jurkat cells; HX103 5 µM, replicates n=1-3) was 0.1% and 0.22% and -0.02% and the “EGFR(+) HX103 (+) (%) AVE” value (Jurkat cells; Jurkat, AVE of n=3) was 0.1%. The “HX103 (+) (%) AVE” value (Jurkat cells; Jurkat, AVE of n=3) was 0.05667%, the “EGFR(+) HX103 (+) (%)” value (Jurkat cells; Jurkat, replicates n=1-3) was -0.02% and 0.1% and 0.22% and the “HX103(+) (%)” value (Jurkat cells; Jurkat, replicates n=1-3) was 0.07% and 0.01% and 0.09%. The IC50 (H1975 cells) was 45 µM.
